This is an account of results in article PMC6521145 (Viruses, 2019).

The subject of series [1] is human brain microvascular endothelial cells. The conditions noted are these: read-out: host cytotoxicity (CC50); cited from earlier work.
Series [2] concerns ZIKV (H/PAN). The series can be described thus: Immunofluorescence imaging of ZIKV envelope protein in infected Vero cells.
The subject of series [3] is ZIKV (H/PAN). Nature of the series: Immunofluorescence imaging of ZIKV envelope protein in infected hNSCs. The conditions noted are these: Zika virus, read-out: IC50 (µM) Values of MTX, Immunofluorescence.
For series [4] the following is noted: human, hNSCs.
For series [5] the following is noted: human.
Series [6] has as its system ZIKV (H/PAN and PRV). The series can be described thus: Plaque assay, ZIKV titer from infected Vero cells. In kind it is cell-based, Zika virus. The conditions noted are these: for decrease in ZIKV titer / rescue of ZIKV replication from MTX treatment: 48 h PI; for rescue of ZIKV replication during MTX treatment: 5 µM MTX with GAT medium or 0.67 mM glycine, 37.5 µM adenosine, 41.3 µM thymidine, 48 h; for rescue of ZIKV replication from MTX treatment: 50 µM co-treatment with 5 µM MTX, H/PAN and PRV MOI 0.2, Vero cells.

Series [7] relates to ZIKV (H/PAN). The series can be described thus: Plaque assay, ZIKV titer from infected hNSCs. It is filed as cell-based, Zika virus.
For series [8], the system named is ZIKV. The conditions noted are these: human brain microvascular endothelial cells; read-out: inhibitory concentration 50 (IC50) against ZIKV; cited from earlier work.
In series [9] the test system is Vero cells. The conditions noted are these: for rescue of cell viability during MTX treatment (CTG): 5 µM MTX with GAT medium or 0.67 mM glycine, 37.5 µM adenosine, 41.3 µM thymidine.
In series [10] the test system is Vero cells. The conditions noted are these: for rescue of cell viability during MTX treatment (CTF): 5 µM MTX with 0.67 mM glycine, 37.5 µM adenosine or 41.3 µM thymidine, uninfected Vero cells.
The test system of series [11] is hNSCs. The conditions noted are these: hNSCs.
[12] abbreviates: GAT medium or 37.5 µM adenosine without MTX.

The structures appear in SMILES notation. Where two headings read alike, the source gives them in different places.

As for `CN(Cc1cnc2nc(N)nc(N)c2n1)c1ccc(C(=O)N[C@@H](CCC(=O)O)C(=O)O)cc1` [MTX, methotrexate], the CC50 in series [1] is over 10000 nM; in [4] it was over 100000 nM; in series [5] it was 16.3 nM. The “ZIKV envelope protein synthesis” value in [2] (5 µM MTX, H/PAN MOI 0.2, Vero cells, 48 h PI) is recorded as “reduced”. Besides, the IC50 was 0.245 µM in [2] (Zika virus, Vero, read-out: IC50 (µM) Values of MTX, Immunofluorescence); 0.334 µM in series [3]; 280 nM in series [8]. For the same compound, the “decrease in ZIKV titer” value in series [6] (5 µM MTX, H/PAN and PRV both MOI 0.2, Vero cells) is on record as “approximately 10 fold”; in series [6] (6.25 µM MTX, H/PAN MOI 0.2, Vero cells), “approximately 10 fold”. Further, in series [6] (5 µM MTX, Vero cells, 96 h PI), the “ZIKV replication at 96 h PI compared to DMSO control” value is recorded as “resumed”. In addition, the “ZIKV replication in infected hNSCs” value in series [7] (5 μM MTX, hNSCs) is “reduced ZIKV replication”.
On to `Nc1ncnc2c1ncn2[C@@H]1O[C@H](CO)[C@@H](O)[C@H]1O` [adenosine], for which the “rescue of cell viability during MTX treatment (CTG)” value in series [9] (uninfected Vero cells) was “could”. Also, the “viability of Vero cells, substance alone (CTG)” value in series [9] (setting [12]) is recorded as “did not alter”. Moreover, in [10], the “rescue of cell viability during MTX treatment (CTF)” value (shortened to “rescue … (CTF)”) was “could”. The “viability of Vero cells, substance alone (CTF)” value in series [10] (setting [12]) is “did not alter”. For the same compound, the “rescue of ZIKV replication during MTX treatment” value in [6] (H/PAN MOI 0.2, Vero cells) is on record as “rescued”.
As for `Nc1nc(=O)c2nc(CNc3ccc(C(=O)N[C@@H](CCC(=O)O)C(=O)O)cc3)cnc2[nH]1` [folic acid], the “rescue of ZIKV replication from MTX treatment” value in series [6] is listed as “could not rescue”.
Regarding `NCC(=O)O` [glycine], the “rescue of cell viability during MTX treatment (CTG)” value in [9] (uninfected Vero cells) was “could not rescue”. Further, the “rescue … (CTF)” value in series [10] is given as “could not rescue”.
Take `Nc1nc2c(c(=O)[nH]1)N(C=O)C(CNc1ccc(C(=O)N[C@@H](CCC(=O)O)C(=O)O)cc1)CN2` (stereo partly shown) [leucovorin]: the “cell viability, substance alone (CTG)” value in [9] (50 µM leucovorin vs water vehicle, Vero cells) is reported as “No significant difference”; in series [11] (50 µM leucovorin vs water vehicle) it was “No significant difference”. Further, in series [9] (50 µM with 5 µM MTX, uninfected Vero cells), the “rescue of cell viability after MTX treatment (CTG)” value is reported as “could rescue”. Also, the “rescue of cell viability during MTX treatment (CTG)” value in [11] (50 µM with 5 µM MTX) was “same rescue effect”. Besides, the “rescue of ZIKV replication from MTX treatment” value in series [6] was “rescued”. Besides, the “rescue of ZIKV replication during MTX treatment” value in series [7] (50 µM with 5 µM MTX, H/PAN MOI 0.1, hNSCs) is reported as “same rescue effect”.
On to `Cc1cn([C@H]2C[C@H](O)[C@@H](CO)O2)c(=O)[nH]c1=O` [thymidine], for which, in series [9] (uninfected Vero cells), the “rescue of cell viability during MTX treatment (CTG)” value is “could not rescue”. Also, the “rescue … (CTF)” value in series [10] is “could not rescue”. Also, the “rescue of ZIKV replication during MTX treatment” value in series [6] (H/PAN MOI 0.2, Vero cells) is given as “could not rescue”.
